Test results taken from paper PMC11022729 (Advanced Science, 2024).

What was measured:
mice [1] = experiment: SLIGRL-induced itch behavior; assay type: in vivo, mouse; conditions: 10 mg kg−1 i.p.
Source text: (§1) Chloroquine‐induced scratching in mice is driven by MrgprA3 activation in the NP2 population of sensory neurons.^[ [10], [29] ^] To further explore the antipruritic efficacy of compound 6 in histamine‐independent itch, we assessed the behavioral response after s.c. injection of the peptide Ser‐Leu‐Ile‐Gly‐Arg‐Leu (SLIGRL) that evokes scratching by activation of MrgprC11,^[ [30] ^] which is expressed in the NP2 and NP3 population.^[ [10] ^] […] Moreover, compound 6 ameliorated histamine‐independent itch evoked by s.c. injection of β‐alanine that activates MrgprD^[ [31] ^] in the NP1 population of sensory neurons^[ [10] ^] (Figure 3F). In contrast, scratching induced by subcutaneous histamine was not affected by compound 6 (Figure 3G). The lack of an effect on histamine‐evoked scratching was supported by the low affinity of compound 6 for histamine H1 receptors, which was determined using a [^3H]‐pyrilamine competition binding assay in vitro (Table S3, Supporting Information). […] We also investigated the efficacy of compound 6 after peroral (p.o.) delivery.
(§2) Three to four days before the day of the experiment, the fur on the dorsolateral aspect of the neck was shaved under brief isoflurane anesthesia. […] Number of scratching bouts directed toward the nape of the neck was assessed over 30 min by videotaping. […]

mice [2] = experiment: β-alanine-induced itch behavior; assay type: in vivo, mouse; conditions: i.p.
Source text: as §1, §2

mice [3] = experiment: MC903 model of persistent itch; assay type: in vivo, mouse; conditions: i.p. at day 8, vs vehicle
Experimental: We next assessed the efficacy of compound 6 in the treatment of chronic itching. […] These findings are important because they indicate that Slack activators can reduce existing itching.
Chronic itching was induced using the MC903 model.^[ [48] ^] The fur on the dorsolateral aspect of the neck was shaved under brief isoflurane anesthesia. Five days later, 20 µL MC903 (0.2 mM; Calcipotriol, Tocris) solved in absolute ethanol was applied to the skin at the back of the neck under brief anesthesia for 7 consecutive days. On day 8, the mice were habituated for 30 min in a plexiglass cylinder (30 cm in diameter). Compound 6 hydrochloride or vehicle was administered i.p., and 15 min later, spontaneous scratching was recorded over 30 min by videotaping.

mice [4] = experiment: Pulse oximetry in conscious, freely moving mice; conditions: 10 mg kg−1 i.p., observation period of 30 min
Experimental: To measure cardiovascular function, a pulse oximeter (MouseOX Plus, Starr Life Sciences Corp.) was used in conscious, freely moving mice. After three consecutive days of habituating the mice to the collar clip for at least 30 min, baseline measurements were performed. […] All the datasets were sampled at 1 Hz, error‐corrected according to the manufacturer's instructions, and averaged over 300 s for each time point.

mice [5] = experiment: Von Frey filament test; assay type: in vivo; conditions: 10 mg kg−1 i.p., hindpaws, vs vehicle
mice [6] = experiment: Hargreaves test; assay type: in vivo; conditions: 10 mg kg−1 i.p., hindpaws, vs vehicle
Experimental: An infrared heat source (intensity set to 25) was applied to the plantar surface of the hind paw, and the time until the animal elicited a withdrawal response was determined. Each hind paw was measured 4–5 times with a minimum interval of 20 s between measurements, and the mean value was calculated. Measurements that reached the cutoff time (20 s) were excluded.

SMILES: O=C(O)COCCN1CCN(C2=Nc3ccccc3Oc3ccc(Cl)cc32)CC1 [Compound 6]
- SLIGRL-induced scratching behavior (mice [1]): significantly inhibited
- itch evoked by s.c. injection of β-alanine (mice [2]): ameliorated
- head shaking (mice [3]): significantly ameliorated
- scratching (mice [3]): significantly ameliorated
- breath rate (mice [4]): did not affect
- heart rate (mice [4]): did not affect
- mechanical sensitivity (von Frey filament test) (mice [5]): Neither mechanical nor thermal sensitivity was altered
- thermal sensitivity (Hargreaves test) (mice [6]): Neither mechanical nor thermal sensitivity was altered
